Experimental findings from patent US20250228239A1, “MOLECULES HAVING PESTICIDAL UTILITY, AND INTERMEDIATES, COMPOSITIONS, AND PROCESSES, RELATED THERETO” (priority 2024, published 2025) are described below.

Like-named read-outs stand apart in the source and are kept apart here.

The test system of experiment [1] is Beet Armyworm (Spodoptera exigua, LAPHEG). Put plainly: Bioassays on Beet Armyworm (BAW), 128-well diet tray assay. In kind it is in vivo. Particulars: Spodoptera exigua. Put shortly: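 Test molecule was dissolved in 90:10 acetone-water and applied at 50 μg/cm^2 onto artificial diet in eight wells, then dried. Second instar larvae, one to five per well, were added, and trays were kept vented at 25° C. with a 14:10 photoperiod for five to seven days before mortality was recorded.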

For experiment [2], the system named is Cabbage Looper (Trichoplusia ni, TRIPNI). Description: Bioassays on Cabbage Looper (CL), 128-well diet tray assay. Type of experiment: in vivo. As to conditions: Trichoplusia ni. A digest of the protocol:
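Second-instar larvae (1–5 per well) placed on artificial diet surface-treated with 50 μg/cm^2 test molecule applied in 90:10 acetone-water and dried. Held at 25° C., 14:10 light-dark, for five to seven days. Percent mortality scored per well and averaged over eight wells.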

Setting [3] is: Beet Armyworm, Table ABC / ABC-DP rating, read-out: BAW rating.
[4] abbreviates: Cabbage Looper, Table ABC / ABC-DP rating, read-out: CL rating.
Setting [5] is: Beet Armyworm, rating class, read-out: BAW.
Setting [6] is: Cabbage Looper, rating class, read-out: CL.
[7] abbreviates: Table ABC: Biological Results, species BAW, read-out: BAW.
Where [8] appears, read: Table ABC: Biological Results, species CL, read-out: CL.

For the compound `O=C(Nc1c(F)ccc(NC(=O)C2CCCO2)c1F)c1cc(NC(=O)[C@H]2[C@H](c3cc(Cl)c(Cl)c(Cl)c3)C2(Cl)Cl)cc(F)c1F` (stereo partly drawn) [F1778, N-(3-(5-((1R,3R)-2,2-Dichloro-3-(3,4,5-trichlorophenyl)cyclopropane-1-carboxamido)-2,3-difluorobenzamido)-2,4-difluorophenyl)tetrahydrofuran-2-carboxamide], the pest or weed control at 50 µg/cm2 in experiment [1] (setting [3]) and in experiment [2] (setting [4]) was 50 to 100% throughout.

`CC(=O)Nc1c(F)ccc(NC(=O)c2cc(NC(=O)[C@H]3[C@H](c4ccc(Cl)c(Cl)c4)C3(Cl)Cl)ccc2F)c1F` [F1493, N-(3-Acetamido-2,4-difluorophenyl)-5-((1R,3R)-2,2-dichloro-3-(3,4-dichlorophenyl)cyclopropane-1-carboxamido)-2-fluorobenzamide]: the pest or weed control at 50 µg/cm2 in experiment [1] (setting [5]) and in experiment [2] (setting [6]) was 50 to 100% each time.

Regarding `CC(=O)Nc1c(Cl)ccc(NC(=O)c2cc(NC(=O)[C@H]3[C@H](c4ccc(F)c(C(F)(F)F)c4)C3(Cl)Cl)ccc2Cl)c1Cl` [F1412, N-(3-Acetamido-2,4-dichlorophenyl)-2-chloro-5-((1R,3R)-2,2-dichloro-3-(4-fluoro-3-(trifluoromethyl)phenyl)cyclopropane-1-carboxamido)benzamide], the pest or weed control at 50 µg/cm2 in experiment [1] (setting [5]) and in experiment [2] (setting [6]) was 50 to 100% throughout.

Consider `Cc1cc(NC(=O)[C@H]2[C@H](c3ccc(Cl)c(Cl)c3)C2(Cl)Cl)cc(C(=O)Nc2cc(NC(=O)C(F)(F)F)c(F)cc2F)c1Cl` [F1497, 2-Chloro-5-((1R,3R)-2,2-dichloro-3-(3,4-dichlorophenyl)cyclopropane-1-carboxamido)-N-(2,4-difluoro-5-(2,2,2-trifluoroacetamido)phenyl)-3-methylbenzamide], for which the pest or weed control at 50 µg/cm2 in experiment [1] (setting [5]) and in experiment [2] (setting [6]) was 50 to 100% each time.

As to `O=C(Nc1ccc(F)c(NC(=O)C(F)(F)F)c1F)c1cc(NC(=O)[C@H]2[C@H](c3cc(Cl)c(Cl)c(Cl)c3)C2(Cl)Cl)ccc1Cl` [F1533, 2-Chloro-5-((1R,3R)-2,2-dichloro-3-(3,4,5-trichlorophenyl)cyclopropane-1-carboxamido)-N-(2,4-difluoro-3-(2,2,2-trifluoroacetamido)phenyl)benzamide], the pest or weed control at 50 µg/cm2 in experiment [1] (setting [5]) and in experiment [2] (setting [6]) was 50 to 100% in each case.

Regarding `COc1c(F)cc(NC(=O)[C@H]2[C@H](c3ccc(F)c(Cl)c3)C2(Cl)Cl)cc1C(=O)Nc1ccc(F)c(N)c1F` (relative stereo) [F1226, trans-N-(3-Amino-2,4-difluorophenyl)-5-(2,2-dichloro-3-(3-chloro-4-fluoro-phenyl)cyclopropane-1-carboxamido)-3-fluoro-2-methoxybenzamide], the pest or weed control at 50 µg/cm2 in experiment [1] (setting [7]) and in experiment [2] (setting [8]) was 50 to 100% in each case.

In the case of `O=C(Nc1c(F)ccc(NC(=O)C(F)(F)C(F)F)c1F)c1cc(NC(=O)[C@H]2[C@H](c3ccc(F)c(C(F)(F)F)c3)C2(Cl)Cl)ccc1Cl` [F1564, 2-Chloro-5-((1R,3R)-2,2-dichloro-3-(4-fluoro-3-(trifluoromethyl)phenyl)cyclopropane-1-carboxamido)-N-(2,6-difluoro-3-(2,2,3,3-tetrafluoropropanamido)phenyl)benzamide], the pest or weed control at 50 µg/cm2 in experiment [1] (setting [5]) and in experiment [2] (setting [6]) was 50 to 100% each time.

Regarding `O=C(Nc1ccc(F)c(NC(=O)C(F)(F)F)c1F)c1cc(NC(=O)[C@H]2[C@H](c3ccc(F)c(Cl)c3)C2(Cl)Cl)cc(F)c1Cl` [F1291, 2-Chloro-5-((1R,3R)-2,2-dichloro-3-(3-chloro-4-fluorophenyl)cyclopropane-1-carboxamido)-N-(2,4-difluoro-3-(2,2,2-trifluoroacetamido)phenyl)-3-fluorobenzamide], the pest or weed control at 50 µg/cm2 in experiment [1] (setting [7]) and in experiment [2] (setting [8]) was 50 to 100% throughout.

For `O=C(Nc1c(F)ccc(NC(=O)C(F)F)c1F)c1cc(NC(=O)[C@H]2[C@H](c3cc(Cl)c(Cl)c(Cl)c3)C2(Cl)Cl)cc(F)c1F` [F1589, 5-((1R,3R)-2,2-Dichloro-3-(3,4,5-trichlorophenyl)cyclopropane-1-carboxamido)-N-(3-(2,2-difluoroacetamido)-2,6-difluorophenyl)-2,3-difluorobenzamide], the pest or weed control at 50 µg/cm2 in experiment [1] (setting [5]) and in experiment [2] (setting [6]) was 50 to 100% in each case.

In the case of `CCNC(=O)c1cc(NC(=O)[C@H]2[C@H](c3ccc(F)c(Cl)c3)C2(Cl)Cl)cc(F)c1Cl` (relative stereo) [F2033, trans-2-Chloro-5-(2,2-dichloro-3-(3-chloro-4-fluorophenyl)cyclopropane-1-carboxamido)-N-ethyl-3-fluorobenzamide], the pest or weed control at 50 µg/cm2 in experiment [1] (setting [3]) and in experiment [2] (setting [4]) was 50 to 100% each time.

For the compound `O=C(Nc1cc(F)cc(NC(=O)C(F)(F)F)c1)c1cc(NC(=O)[C@H]2[C@H](c3cc(Cl)cc(Cl)c3)C2(Cl)Cl)ccc1Cl` (relative stereo) [F1639, trans-2-Chloro-5-(2,2-dichloro-3-(3,5-dichlorophenyl)cyclopropane-1-carboxamido)-N-(3-fluoro-5-(2,2,2-trifluoroacetamido)phenyl)benzamide], the pest or weed control at 50 µg/cm2 in experiment [1] (setting [5]) and in experiment [2] (setting [6]) was 50 to 100% in each case.

Consider `O=C(Nc1c(F)ccc(NC(=O)C(F)(F)F)c1F)c1cc(NC(=O)[C@H]2[C@H](c3ccc(F)c(C(F)(F)F)c3)C2(Cl)Cl)ccc1Cl` [F1538, 2-Chloro-5-((1R,3R)-2,2-dichloro-3-(4-fluoro-3-(trifluoromethyl)phenyl)cyclopropane-1-carboxamido)-N-(2,6-difluoro-3-(2,2,2-trifluoroacetamido)phenyl)benzamide], for which the pest or weed control at 50 µg/cm2 in experiment [1] (setting [5]) and in experiment [2] (setting [6]) was 50 to 100% each time.

As to `O=C(Nc1cc(NC(=O)C(F)F)c(F)cc1F)c1cc(NC(=O)[C@H]2[C@H](c3cc(Cl)c(Cl)c(Cl)c3)C2(Cl)Cl)cc(F)c1F` [F1580, 5-((1R,3R)-2,2-Dichloro-3-(3,4,5-trichlorophenyl)cyclopropane-1-carboxamido)-N-(5-(2,2-difluoroacetamido)-2,4-difluorophenyl)-2,3-difluorobenzamide], the pest or weed control at 50 µg/cm2 in experiment [1] (setting [5]) and in experiment [2] (setting [6]) was 50 to 100% each time.

Take `Cc1cc(NC(=O)C(Cl)(Cl)Cl)ccc1NC(=O)c1cc(NC(=O)[C@H]2[C@H](c3ccc(Cl)c(Cl)c3)C2(Cl)Cl)ccc1Cl` (relative stereo) [F1060, trans-2-Chloro-5-(2,2-dichloro-3-(3,4-dichlorophenyl)cyclopropane-1-carboxamido)-N-(2-methyl-4-(2,2,2-trichloroacetamido)phenyl)benzamide]: the pest or weed control at 50 µg/cm2 in experiment [1] (setting [7]) and in experiment [2] (setting [8]) was 50 to 100% in each case.

Consider `CC(=O)Nc1c(F)ccc(NC(=O)c2cc(NC(=O)[C@H]3[C@H](c4ccc(Cl)c(Cl)c4)C3(Cl)Cl)cc(C)c2Cl)c1F` [F1543, N-(3-Acetamido-2,4-difluorophenyl)-2-chloro-5-((1R,3R)-2,2-dichloro-3-(3,4-dichlorophenyl)cyclopropane-1-carboxamido)-3-methylbenzamide], for which the pest or weed control at 50 µg/cm2 in experiment [1] (setting [5]) and in experiment [2] (setting [6]) was 50 to 100% each time.

As to `CC(=O)Nc1ccc(F)c(NC(=O)c2cc(NC(=O)[C@H]3[C@H](c4cc(Cl)c(Cl)c(Cl)c4)C3(Cl)Cl)cc(F)c2F)c1F` [F1590, N-(3-Acetamido-2,6-difluorophenyl)-5-((1R,3R)-2,2-dichloro-3-(3,4,5-trichlorophenyl)cyclopropane-1-carboxamido)-2,3-difluorobenzamide], the pest or weed control at 50 µg/cm2 in experiment [1] (setting [5]) and in experiment [2] (setting [6]) was 50 to 100% each time.

With `O=C(Nc1cc(NC(=O)C(F)F)c(F)cc1F)c1cc(NC(=O)[C@H]2[C@H](c3cc(Cl)cc(Cl)c3)C2(Cl)Cl)cc(F)c1Cl` [F1408, 2-Chloro-5-((1R,3R)-2,2-dichloro-3-(3,5-dichlorophenyl)cyclopropane-1-carboxamido)-N-(5-(2,2-difluoroacetamido)-2,4-difluorophenyl)-3-fluorobenzamide], the pest or weed control at 50 µg/cm2 in experiment [1] (setting [5]) and in experiment [2] (setting [6]) was 50 to 100% in each case.

On to `O=C(Nc1ccc(F)cc1F)c1cc(NC(=O)[C@H]2[C@H](c3ccc(F)c(Cl)c3)C2(Cl)Cl)cc(F)c1F` (relative stereo) [F1209, trans-5-(2,2-Dichloro-3-(3-chloro-4-fluorophenyl)cyclopropane-1-carboxamido)-N-(2,4-difluorophenyl)-2,3-difluorobenzamide], for which the pest or weed control at 50 µg/cm2 in experiment [1] (setting [7]) and in experiment [2] (setting [8]) was 50 to 100% in each case.

Turning to `O=C(CCBr)Nc1c(F)ccc(NC(=O)c2cc(NC(=O)[C@H]3[C@H](c4ccc(F)c(C(F)(F)F)c4)C3(Cl)Cl)ccc2Cl)c1F` [F1851, N-(3-(3-Bromopropanamido)-2,4-difluorophenyl)-2-chloro-5-((1R,3R)-2,2-dichloro-3-(4-fluoro-3-(trifluoromethyl)phenyl)cyclopropane-1-carboxamido)benzamide], the pest or weed control at 50 µg/cm2 in experiment [1] (setting [3]) and in experiment [2] (setting [4]) was 50 to 100% in each case.

In the case of `CCNC(=O)c1c(Cl)ccc(NC(=O)[C@H]2[C@H](c3ccc(F)c(Cl)c3)C2(Cl)Cl)c1F` [F2071, 6-Chloro-3-((1R,3R)-2,2-dichloro-3-(3-chloro-4-fluorophenyl)cyclopropane-1-carboxamido)-N-ethyl-2-fluorobenzamide], the pest or weed control at 50 µg/cm2 in experiment [1] (setting [3]) and in experiment [2] (setting [4]) was 50 to 100% throughout.
